The text below walks through data of patent US20230346823A1, “UTILIZATION OF VITAMIN B12 IN INHIBITING RENAL DISORDER” (Niigata University, priority 2020, published 2023).

For test [1], the target named is megalin (Mus musculus, UniProt A2ARV4). As to conditions: described in PTL 1; cited from earlier work.
Test [2] addresses T1, transcobalamin 2 (TCN2) (Rattus norvegicus, UniProt Q9R0D6).
T1 construct: purchased LifeSpan BioSciences, Inc
T1 sequence (Q9R0D6 19-427): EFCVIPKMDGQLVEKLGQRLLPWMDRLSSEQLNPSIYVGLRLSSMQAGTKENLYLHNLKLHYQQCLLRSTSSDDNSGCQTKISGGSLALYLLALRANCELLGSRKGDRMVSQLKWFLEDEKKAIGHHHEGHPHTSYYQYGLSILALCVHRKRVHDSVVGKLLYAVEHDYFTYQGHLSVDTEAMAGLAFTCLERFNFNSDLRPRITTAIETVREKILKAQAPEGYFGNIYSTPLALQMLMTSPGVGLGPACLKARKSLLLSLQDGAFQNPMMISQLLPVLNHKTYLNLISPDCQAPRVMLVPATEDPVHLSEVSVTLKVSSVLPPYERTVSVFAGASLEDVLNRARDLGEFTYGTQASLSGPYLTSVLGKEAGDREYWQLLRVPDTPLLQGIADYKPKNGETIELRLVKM
In words: Competition against binding of TCN2 to contrast medium-immobilized beads, Western blotting. As to conditions: 25 ng/µL TCN2 + test substance; contrast medium beads (iomeprol, ioversol, iodixanol, iopromide, iohexol) at 10 mM feed; FIG. 6 to FIG. 10. The source says:
Iodinated contrast media used were the bulk of iomeprol, the bulk of ioversol, the bulk of iodixanol, the bulk of iopromide, and the bulk of iohexol. Evaluations were made using these solid-phased beads.
For test chemicals for competing with the binding, vitamin B12 (cyanocobalamin, methylcobalamin, or hydroxocobalamin), cilastatin, and iomeprol (iodinated contrast medium) were used. Cilastatin and iomeprol are positive controls of inhibition.
The solution/beads combinations adopted were as mentioned below. • Solution a) + contrast medium-immobilized beads prepared at 0 mM contrast medium feed concentration (control) • Solution a) + contrast medium-immobilized beads prepared at 10 mM contrast medium feed concentration (no competition) • Solution b) + contrast medium-immobilized beads prepared at 10 mM contrast medium feed concentration (competition with vitamin B12, iomeprol, or cilastatin)

Test [3] deals with T1, transcobalamin 2 (TCN2). In words: Binding of TCN2 to iomeprol-immobilized magnetic beads, Western blotting with anti-TCN2 antibody. As to conditions: feed concentrations 0, 3 and 10 mM, 25 ng/µL TCN2, 4° C., 4 hours, FIG. 5. As to the method:
The bulk of iodinated contrast medium was dissolved, just before use, in a solvent in which glycidylmethacrylate-coated magnetic beads (FG beads®, particle size: 0.2 µm, produced by Tamagawa Seiki Co., Ltd.) were dispersed, to initiate chemical bonding between […] present on the surface of the magnetic beads and hydroxyl groups in the contrast medium, whereby contrast medium-immobilized magnetic beads were prepared.
The iodinated contrast medium used was the bulk of iomeprol. At feed concentrations of 0 mM, 3 mM and 10 mM, the iodinated contrast medium was immobilized by chemical bonding. The preparation of the iomeprol-immobilized beads was conducted by Tamagawa Seiki Co., Ltd. […]
The TCN2-containing samples were subjected to SDS-polyacrylamide electrophoresis under reducing conditions using 4-15% gradient gels (produced by Bio-Rad Laboratories), and the developed samples were transferred onto polyvinylidene fluoride (PVDF) membranes. […] Then, bands were detected using chemiluminescent substrate for western blotting (SuperSignal™ West Femto Maximum Sensitivity Substrate; Thermo Scientific™).

A further test concerns C57BL/6J mice. Kind of test: Contrast-induced renal injury model (left nephrectomy, ischemia-reperfusion, then iomeprol). The settings on record: 200 µL iomeprol + 100 µL of 1 mg/mL cyanocobalamin, vs iomeprol + normal saline.
For test [4], the system named is renal proximal tubular epithelial cells. In words: Internalization of iodinated contrast medium into kidney cortex, iodine/nitrogen ratio by EPMA. Type of test: in vivo, C57BL/6J mice. The settings on record: 100 µL iomeprol + 100 µL of 1 mg/mL cyanocobalamin, tail vein; kidneys 3 hours later; vs iomeprol + normal saline control; t-test; FIG. 1. As to the method: The prepared sections were analyzed by EPMA (EPMA1610; Shimadzu Ltd, Kyoto, Japan) by following the procedure described below to examine whether there is a difference in the internalization of a contrast medium between the contrast medium + vitamin B12-treated group and the contrast medium + normal saline-treated group.
EPMA is an electron microprobe (EMP) instrument that analyzes the constituent elements of a substance of interest by irradiating electron beams onto the substance and measuring the wavelengths and intensities of characteristic X-rays unique to the different elements, which are generated by the electron beams. The iodine content in sections can be determined by EMP analysis (Norby, et al., Scanning Microsc, 1990, vol.4, p.651-666). […] The behaviors of iodinated contrast media per se can be verified by analyzing iodine content distribution.
The “thin-film quantification” technique can be applied for analysis of biological samples such as kidney tissue sections. […]
Therefore, by calculating a ratio of characteristic X-ray intensity between iodine (I) and nitrogen (N) (I/N) in a specified area of biological samples, iodine (I) in different samples can be relatively quantified and compared.
Based on this principle, the sections obtained by the above experiment were analyzed by EPMA, and iodine in a specified area was relatively quantified and compared among the samples. […]

The target of test [5] is T2, megalin (Rattus norvegicus, UniProt P98158).
T2 construct: megalin purified from Sprague-Dawley (SD) rat kidneys; from tissue; host or cells: Sprague-Dawley rat kidneys (megalin purified by the method of Orlando et al.); TCN2 purchased from LifeSpan BioSciences
In words: Quartz crystal microbalance (QCM) binding of transcobalamin 2 to immobilized megalin. Also on record: species or system Sprague-Dawley (SD) rat. The settings on record: 1.5 µg recombinant rat transcobalamin 2 injected on megalin-immobilized quartz crystals; BSA control decreased only 20 to 30 Hz; FIG. 4. As to the method: According to the method of Orlando, et al., megalin purified from Sprague-Dawley (SD) rat kidneys was immobilized on quartz crystals. To be specific, with the use of an immobilization kit for AFFINIX® (Initium Inc.) according to the recommended protocol for the kit, a megalin solution was prepared in Buffer A as provided with the kit to a concentration of 62.5 µg/mL, and placed and immobilized on the quartz crystals mounted in a holder.
After the megalin-immobilized quartz crystals were mounted in the measurement instrument AFFINIX® Q8 (Initium Inc.) and the frequency was confirmed to be stable, recombinant rat transcobalamin 2 proteins (TCN2 LifeSpan Bio Sciences, Inc.) (1.5 µg) were injected (in total injection volume) to measure frequency over time. More specifically, after the megalin-immobilized quartz crystals were immersed in 200 µL of buffer and the frequency was confirmed to be stable, transcobalamin 2 was injected and frequency was measured. The same measurement was done on quartz crystals, as a control, on which the same amount of bovine serum albumin (BSA) was immobilized instead of megalin, and the specific binding ability of transcobalamin 2 to megalin was analyzed.

Chain of megalin (Mus musculus, UniProt A2ARV4) (A2ARV4 26-4660): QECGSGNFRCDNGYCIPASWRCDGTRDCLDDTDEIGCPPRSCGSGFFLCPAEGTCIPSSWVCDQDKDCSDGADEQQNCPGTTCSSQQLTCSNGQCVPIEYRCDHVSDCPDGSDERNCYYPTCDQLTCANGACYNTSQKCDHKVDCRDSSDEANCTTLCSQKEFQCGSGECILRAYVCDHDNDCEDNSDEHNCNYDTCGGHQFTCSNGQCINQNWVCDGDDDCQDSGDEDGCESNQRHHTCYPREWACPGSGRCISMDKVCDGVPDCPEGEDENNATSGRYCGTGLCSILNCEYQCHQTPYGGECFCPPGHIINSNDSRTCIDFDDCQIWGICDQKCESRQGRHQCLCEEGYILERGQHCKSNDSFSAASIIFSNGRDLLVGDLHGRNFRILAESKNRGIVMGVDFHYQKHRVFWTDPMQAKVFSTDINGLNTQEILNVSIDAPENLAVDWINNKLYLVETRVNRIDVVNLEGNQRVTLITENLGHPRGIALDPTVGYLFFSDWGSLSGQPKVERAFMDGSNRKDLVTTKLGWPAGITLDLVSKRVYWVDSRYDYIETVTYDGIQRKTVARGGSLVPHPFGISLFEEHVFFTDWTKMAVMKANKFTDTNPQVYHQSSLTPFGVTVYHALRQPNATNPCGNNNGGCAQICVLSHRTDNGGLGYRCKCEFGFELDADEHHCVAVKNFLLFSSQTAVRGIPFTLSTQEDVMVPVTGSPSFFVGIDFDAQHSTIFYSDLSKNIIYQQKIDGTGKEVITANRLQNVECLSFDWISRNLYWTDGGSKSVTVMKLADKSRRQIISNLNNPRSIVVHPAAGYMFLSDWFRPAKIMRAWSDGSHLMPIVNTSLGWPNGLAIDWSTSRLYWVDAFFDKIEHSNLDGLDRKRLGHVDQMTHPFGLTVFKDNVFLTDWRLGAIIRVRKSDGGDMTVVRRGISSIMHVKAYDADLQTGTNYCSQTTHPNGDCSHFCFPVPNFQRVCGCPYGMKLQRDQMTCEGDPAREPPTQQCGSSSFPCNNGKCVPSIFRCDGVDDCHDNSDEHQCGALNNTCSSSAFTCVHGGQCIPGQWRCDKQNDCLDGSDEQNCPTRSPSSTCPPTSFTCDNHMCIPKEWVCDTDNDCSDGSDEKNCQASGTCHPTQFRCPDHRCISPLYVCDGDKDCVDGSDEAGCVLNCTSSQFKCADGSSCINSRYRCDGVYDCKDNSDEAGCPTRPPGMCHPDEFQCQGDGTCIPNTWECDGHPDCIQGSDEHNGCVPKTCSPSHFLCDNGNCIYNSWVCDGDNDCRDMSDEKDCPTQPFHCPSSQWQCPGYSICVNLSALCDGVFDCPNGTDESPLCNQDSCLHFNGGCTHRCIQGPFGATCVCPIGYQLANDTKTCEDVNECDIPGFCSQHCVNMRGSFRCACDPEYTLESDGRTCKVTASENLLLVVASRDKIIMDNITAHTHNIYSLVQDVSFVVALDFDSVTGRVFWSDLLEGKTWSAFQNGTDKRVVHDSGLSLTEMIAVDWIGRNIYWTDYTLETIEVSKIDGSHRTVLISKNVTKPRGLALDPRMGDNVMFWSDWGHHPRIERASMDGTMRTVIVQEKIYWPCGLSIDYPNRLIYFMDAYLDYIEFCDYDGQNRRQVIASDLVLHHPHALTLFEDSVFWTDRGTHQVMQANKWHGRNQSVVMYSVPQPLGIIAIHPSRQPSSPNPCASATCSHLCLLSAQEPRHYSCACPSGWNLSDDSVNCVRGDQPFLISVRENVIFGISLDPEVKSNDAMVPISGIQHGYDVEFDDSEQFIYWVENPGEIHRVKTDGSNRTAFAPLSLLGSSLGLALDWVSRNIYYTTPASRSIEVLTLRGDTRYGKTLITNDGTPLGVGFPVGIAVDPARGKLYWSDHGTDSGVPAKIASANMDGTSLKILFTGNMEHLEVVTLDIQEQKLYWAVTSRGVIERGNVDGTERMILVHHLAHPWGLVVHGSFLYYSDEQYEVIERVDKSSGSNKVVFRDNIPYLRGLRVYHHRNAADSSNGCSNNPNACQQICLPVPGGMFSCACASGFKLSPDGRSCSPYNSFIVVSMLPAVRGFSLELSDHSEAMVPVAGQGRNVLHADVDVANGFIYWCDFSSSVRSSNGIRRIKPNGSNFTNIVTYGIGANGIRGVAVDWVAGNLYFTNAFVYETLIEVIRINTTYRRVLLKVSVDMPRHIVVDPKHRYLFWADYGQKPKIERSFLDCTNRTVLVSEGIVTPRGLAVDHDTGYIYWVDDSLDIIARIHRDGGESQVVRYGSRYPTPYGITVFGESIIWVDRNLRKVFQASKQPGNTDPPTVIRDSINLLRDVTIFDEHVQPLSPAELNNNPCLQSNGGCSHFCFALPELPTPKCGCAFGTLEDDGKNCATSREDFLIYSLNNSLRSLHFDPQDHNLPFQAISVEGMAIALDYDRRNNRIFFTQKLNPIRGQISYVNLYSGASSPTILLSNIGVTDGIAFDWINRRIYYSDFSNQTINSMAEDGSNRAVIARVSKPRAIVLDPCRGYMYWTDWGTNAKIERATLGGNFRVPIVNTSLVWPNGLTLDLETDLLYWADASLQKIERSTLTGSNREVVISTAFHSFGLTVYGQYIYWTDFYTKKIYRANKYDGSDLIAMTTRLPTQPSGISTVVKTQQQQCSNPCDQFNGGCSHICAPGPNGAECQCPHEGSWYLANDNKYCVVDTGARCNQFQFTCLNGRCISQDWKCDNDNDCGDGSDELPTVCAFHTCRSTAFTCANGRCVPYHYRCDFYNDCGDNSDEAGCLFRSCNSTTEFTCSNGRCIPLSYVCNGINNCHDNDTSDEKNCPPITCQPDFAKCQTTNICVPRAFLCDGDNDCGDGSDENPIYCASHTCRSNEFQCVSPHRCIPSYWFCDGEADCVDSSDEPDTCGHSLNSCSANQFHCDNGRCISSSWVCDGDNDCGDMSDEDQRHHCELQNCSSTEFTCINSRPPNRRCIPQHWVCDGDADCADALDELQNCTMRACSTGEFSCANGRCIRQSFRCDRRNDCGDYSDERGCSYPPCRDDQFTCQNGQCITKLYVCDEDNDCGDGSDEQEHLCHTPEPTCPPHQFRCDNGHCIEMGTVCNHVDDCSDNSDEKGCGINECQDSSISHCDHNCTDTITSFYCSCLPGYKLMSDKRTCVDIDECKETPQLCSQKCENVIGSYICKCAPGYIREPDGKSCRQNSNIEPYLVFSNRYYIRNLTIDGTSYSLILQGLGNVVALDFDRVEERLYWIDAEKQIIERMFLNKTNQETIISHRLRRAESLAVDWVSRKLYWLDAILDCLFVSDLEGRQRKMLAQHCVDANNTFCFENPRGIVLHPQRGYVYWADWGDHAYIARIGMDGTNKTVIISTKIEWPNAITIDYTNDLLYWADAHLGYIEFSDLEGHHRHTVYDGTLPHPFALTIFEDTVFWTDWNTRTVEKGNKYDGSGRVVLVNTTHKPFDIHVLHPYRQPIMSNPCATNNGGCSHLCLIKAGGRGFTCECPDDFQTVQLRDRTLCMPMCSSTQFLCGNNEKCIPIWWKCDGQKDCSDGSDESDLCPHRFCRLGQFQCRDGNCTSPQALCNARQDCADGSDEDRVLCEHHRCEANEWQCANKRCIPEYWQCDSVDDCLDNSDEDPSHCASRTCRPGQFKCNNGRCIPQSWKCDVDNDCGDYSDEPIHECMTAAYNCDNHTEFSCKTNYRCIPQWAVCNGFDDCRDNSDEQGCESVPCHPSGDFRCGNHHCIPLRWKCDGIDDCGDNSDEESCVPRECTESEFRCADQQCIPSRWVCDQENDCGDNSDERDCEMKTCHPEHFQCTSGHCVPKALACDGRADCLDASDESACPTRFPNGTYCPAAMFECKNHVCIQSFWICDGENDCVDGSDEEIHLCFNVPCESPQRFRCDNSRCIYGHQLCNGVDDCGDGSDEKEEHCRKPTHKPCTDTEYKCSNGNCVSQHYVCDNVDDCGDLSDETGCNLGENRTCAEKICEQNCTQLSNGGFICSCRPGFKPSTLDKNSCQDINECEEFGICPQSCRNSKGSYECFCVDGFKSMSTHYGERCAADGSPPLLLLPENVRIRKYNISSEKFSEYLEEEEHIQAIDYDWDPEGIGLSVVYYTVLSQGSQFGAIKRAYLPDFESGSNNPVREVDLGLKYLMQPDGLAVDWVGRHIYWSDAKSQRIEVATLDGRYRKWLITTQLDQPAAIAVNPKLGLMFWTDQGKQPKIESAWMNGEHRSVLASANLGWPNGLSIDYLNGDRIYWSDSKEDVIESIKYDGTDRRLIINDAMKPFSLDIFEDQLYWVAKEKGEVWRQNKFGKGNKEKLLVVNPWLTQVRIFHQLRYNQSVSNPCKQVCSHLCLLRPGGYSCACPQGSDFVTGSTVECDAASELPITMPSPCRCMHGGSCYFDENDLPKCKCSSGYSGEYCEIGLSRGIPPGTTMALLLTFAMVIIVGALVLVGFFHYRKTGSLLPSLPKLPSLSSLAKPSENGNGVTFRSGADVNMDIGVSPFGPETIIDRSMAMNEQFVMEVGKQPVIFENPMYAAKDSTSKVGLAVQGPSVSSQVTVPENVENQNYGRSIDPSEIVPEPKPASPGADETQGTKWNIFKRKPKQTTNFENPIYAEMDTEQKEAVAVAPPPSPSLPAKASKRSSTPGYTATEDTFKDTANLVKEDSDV
Description for C57BL/6J mice: Left kidneys were extracted from the C57BL/6J mice, and 14 days later, right kidney pedicles were ligated for 30 minutes. Thereafter, reperfusion was carried out. After 24 hours from the start of reperfusion, the C57BL/6J mice were divided into the following groups and administered with the following agents from the tail vein. • a) Contrast medium + vitamin B12-treated group: 200 µL of iomeprol + 100 µL of 1 mg/mL of cyanocobalamin solution • b) Contrast medium + normal saline-treated group (control): 200 µL of iomeprol + 100 µL of normal saline
For each of the groups, 24 hours before anatomizing, urine samples were collected using a metabolic cage, the mice were anatomized after 48 hours from the medication, then urinary kidney injury molecule-1 (KIM-1) was measured. Urinary KIM-1 measurements were conducted by Oriental Yeast Co., Ltd.
Further, right kidneys were extracted and histologically evaluated by immunostaining with KIM-1. To be specific, 3 mm-thick sections containing a kidney pedicle portion were prepared from the right kidneys, fixed with 4% paraformaldehyde phosphate buffer, sliced at a thickness of 4 µm using a microtome (REM-710; Yamato Kohki Industrial Co., Ltd.), and the obtained thin slices were immunostained with the renal injury marker KIM-1. The immunostaining was performed using VECTASTAIN Elite ABC Kit (Vector Laboratories, Inc.). […]

`CC1(C)C[C@@H]1C(=O)N/C(=C\CCCCSC[C@H](N)C(=O)O)C(=O)O` [cilastatin, (Z)-7-[[(R)-2-Amino-2-carboxyethyl]thio]-2-[[[(S)-2,2-dimethylcyclopropyl]carbonyl]amino]-2-heptenoic acid]: on megalin [1], the “megalin-dependent internalization of iodinated contrast media into renal proximal tubular epithelial cells” value was “inhibits” and the renal injuries entry is given as “inhibits renal injuries”. Further, at transcobalamin 2 (TCN2) [2], the “TCN2 bands by competition with test substance” value (from here on “TCN2 bands by competition”) is listed as “concentration-dependent decrease in TCN2 bands”.
In the case of `C/C1=C2/[N-][C@H]([C@H](CC(N)=O)[C@@]2(C)CCC(=O)NC[C@@H](C)OP(=O)([O-])O[C@H]2[C@@H](O)[C@@H](n3cnc4cc(C)c(C)cc43)O[C@@H]2CO)[C@]2(C)N=C(/C(C)=C3N=C(/C=C4N=C1[C@@H](CCC(N)=O)C\4(C)C)[C@@H](CCC(N)=O)[C@]\3(C)CC(N)=O)[C@@H](CCC(N)=O)[C@]2(C)CC(N)=O.[Co+3].[OH-]` [hydroxocobalamin], at transcobalamin 2 (TCN2) [2], the “TCN2 bands by competition” value is “concentration-dependent decrease in TCN2 bands”.
`CN(C(=O)CO)c1c(I)c(C(=O)NCC(O)CO)c(I)c(C(=O)NCC(O)CO)c1I` (stereo not drawn) [iomeprol]: the “intensity of TCN2 band from heat-eluted samples” value at transcobalamin 2 (TCN2) [3] was “intensity of the band corresponding to TCN2 from heat-eluted samples was increased”. In addition, the “TCN2 bands by competition” value on transcobalamin 2 (TCN2) [2] is “concentration-dependent decrease in TCN2 bands”.
In the case of `C/C1=C2/[N-][C@H]([C@H](CC(N)=O)[C@@]2(C)CCC(=O)NC[C@H](C)OP(=O)([O-])O[C@H]2[C@@H](O)[C@@H](n3cnc4cc(C)c(C)cc43)O[C@@H]2CO)[C@]2(C)N=C(/C(C)=C3N=C(/C=C4N=C1[C@@H](CCC(N)=O)C\4(C)C)[C@@H](CCC(N)=O)[C@]\3(C)CC(N)=O)[C@@H](CCC(N)=O)[C@]2(C)CC(N)=O.[CH3-].[Co+3]` [methylcobalamin], the “TCN2 bands by competition” value at transcobalamin 2 (TCN2) [2] was “concentration-dependent decrease in TCN2 bands”.
cyanocobalamin: in the test on C57BL/6J mice (tail vein, 48 hours after medication, FIG. 2), the “expression of KIM-1 in outer cortex (immunostaining)” value is given as “expression of KIM-1 was decreased”. The “PAS staining, vacuoles degeneration (injury finding) in kidney cortex” value in the test with C57BL/6J mice (FIG. 3) was “did not have such an injury finding”. Further, the “TCN2 bands by competition” value on transcobalamin 2 (TCN2) [2] was “concentration-dependent decrease in TCN2 bands”. Further, the “I/N X-ray ratio (iodine/nitrogen) in kidney cortex areas” value in test [4] was “significantly (t-test) lower”.

B1: transcobalamin 2: Recombinant rat transcobalamin 2 protein, a transport protein for vitamin B12 (about 45 kDa) (protein, UniProt Q9R0D6 19-427, looked up)
Transcobalamin-2: EFCVIPKMDGQLVEKLGQRLLPWMDRLSSEQLNPSIYVGLRLSSMQAGTKENLYLHNLKLHYQQCLLRSTSSDDNSGCQTKISGGSLALYLLALRANCELLGSRKGDRMVSQLKWFLEDEKKAIGHHHEGHPHTSYYQYGLSILALCVHRKRVHDSVVGKLLYAVEHDYFTYQGHLSVDTEAMAGLAFTCLERFNFNSDLRPRITTAIETVREKILKAQAPEGYFGNIYSTPLALQMLMTSPGVGLGPACLKARKSLLLSLQDGAFQNPMMISQLLPVLNHKTYLNLISPDCQAPRVMLVPATEDPVHLSEVSVTLKVSSVLPPYERTVSVFAGASLEDVLNRARDLGEFTYGTQASLSGPYLTSVLGKEAGDREYWQLLRVPDTPLLQGIADYKPKNGETIELRLVKM
Take B1: the “decrease of QCM frequency” value with megalin [5] is “about 200 Hz”.
